Reference: a melting point compilation (Tetko et al.)

| Structure (SMILES) | melting point [°C] |
| --- | --- |
| CCOC(=O)/C(C#N)=C\Nc1ccc(F)c(F)c1F | 142 to 144 |
| Cc1nc2c(F)cccc2c(Cl)c1C(C)C | 47 to 49 |
| Cc1ccc(-c2nnc(N)[nH]2)s1 | 222 to 224 |
| FC(F)Oc1ccc(-c2nnc(S)o2)cc1 | 121 to 123 |
| CC(=O)NC1(C(=O)O)CCCCCC1 | 196 to 198 |
| Cc1nnnn1C(Cc1cccc(F)c1)C(=O)O (stereo unspecified) | 158 to 160 |
| O=C(O)C1=NOC(c2ccccc2)C1 (stereo unspecified) | 102 to 104 |
| CN(CC(=O)O)S(N)(=O)=O | 94 to 96 |
| Nc1ncc(Br)cc1S(=O)(=O)Cl | 129 to 131 |
| O=C1CC2CCCc3cccc1c32 (stereo unspecified) | 95 to 97 |
| Nc1nc(-c2ccc(OCc3ccccc3)cc2)cs1 | 160 to 162 |
| Nc1nc(-c2cccc(C(F)(F)F)c2)cs1 | 85 to 87 |
| CC1CNC(=O)N1c1cccc(N)c1 (stereo unspecified) | 169 to 171 |
| O=C(NC1CCNCC1)C1CCOCC1 | 156 to 158 |
| Cc1ccc(C)c(OCCCCC(=O)O)c1 | 56 to 58 |
| CC(=O)CC(=O)Nc1cccc(Br)c1 | 108 to 110 |
| Cn1c(=O)oc2cc(Br)ccc21 | 144 to 146 |
| CN(c1ccccc1N)S(C)(=O)=O | 138 to 140 |
| CCCC(=O)N1CCCC(C(=O)O)C1 (stereo unspecified) | 96 to 98 |
| Cc1cn2c(n1)CCC(N)C2 (stereo unspecified) | 49 to 51 |
| O=CCN1C(=O)COc2ccccc21 | 97 to 99 |
| CS(=O)(=O)c1ccccc1-n1cc(C(=O)O)cn1 | 225 to 227 |
| Cc1nc(S(=O)(=O)N2CCC(C(=O)O)CC2)cn1C | 262 to 264 |
| COC(=O)c1c(F)cc(C#N)cc1F | 111 to 113 |
| Cc1cc(N)ncn1 | 186 to 188 |

| Structure (SMILES) | melting point [°C] |
| --- | --- |
| OC1CCc2cn[nH]c2C1 (stereo unspecified) | 154 to 156 |
| CCn1c(N)nc2cc(Cl)ccc21 | 169 to 171 |
| O=C1C2CC1CN(Cc1ccccc1)C2 | 64 to 66 |
| N#CC(N)c1ccc(Cl)cc1Cl (stereo unspecified) | 80 to 82 |
| CCOc1cc2c(cc1/C=C/C(=O)O)OC(C)C2 (stereo unspecified) | 169 to 171 |
| COc1ccc2nc(O)c(C(=O)O)cc2c1 | 309 to 311 |
| Fc1ccc(NC2CCN(c3ccncc3)CC2)cc1 | 151 to 153 |
| CC(=O)NNC(=O)CCl | 157 to 159 |
| Cc1cc(N2CCCC2=O)ccc1S(=O)(=O)Cl | 104 to 106 |
| O=C(O)c1cccc(NC(=O)C2CCCCC2)c1 | 228 to 230 |
| Cc1nc(-c2ccc(Br)cc2)n[nH]1 | 190 to 192 |
| O=C(CC1CCCCC1)NC1CCC(C(=O)O)CC1 (stereo unspecified) | 136 to 138 |
| Cc1ccc(I)cc1C(=O)O | 166 to 168 |
| NNC(=O)CCN1CCN(c2ccccc2)CC1 | 120 to 122 |
| c1cnc2c(c1)NCCC2 | 103 to 105 |
| CC(C)NC(=O)CC1(C(=O)O)CCCC1 | 139 to 141 |
| CCC1(CC)NC(=O)N(CC(=O)O)C1=O | 169 to 173 |
| N#Cc1cccnc1-n1cncn1 | 201 to 203 |
| Cc1ccc(S(=O)(=O)NCCCC(=O)O)cc1 | 138 to 140 |
| Cc1csc(SCc2c(C(=O)O)oc3ccccc23)n1 | 177 to 179 |
| Cc1cc(C)n2cnc(C(N)=O)c2n1 | 303 to 305 |
| Nc1cc(NC(=O)c2ccccc2I)ccc1Cl | 189 to 191 |
| O=S(=O)(F)CCn1nnc(-c2ccccc2)n1 | 97 to 99 |
| Cc1c(-c2ccncc2)n[nH]c1N | 160 to 162 |
| O=C(CN1C(=O)CCC1=O)c1ccccc1 | 144 to 146 |

| Structure (SMILES) | melting point [°C] |
| --- | --- |
| CC(Oc1cccc(C(C)(C)C)c1)C(=O)O (stereo unspecified) | 67 to 69 |
| Ic1nnc[nH]1 | 196 to 198 |
| Cn1c(N)c(C(=O)CCl)c(=O)n(C)c1=O | 185 to 187 |
| CCOC(=O)c1cnc(C(=O)O)c(Cl)c1 | 114 to 116 |
| COc1ccc(OC)c(NC(=O)CCl)c1 | 169 to 171 |
| NNC(=O)C(F)(F)Oc1ccccc1 | 76 to 78 |
| O=C(O)c1ccc2c(c1)COCO2 | 189 to 191 |
| COC(=O)CCCc1csc(N)n1 | 69 to 71 |
| OCc1ccc(OCC(F)(F)F)cc1 | 64 to 66 |
| N#Cc1ccc(Cn2cnc3ccccc32)cc1 | 103 to 105 |
| c1ccc(Nc2nnns2)cc1 | 144 to 146 |
| Nc1cc(-c2ccccc2F)no1 | 118 to 120 |
| CCCCCCCC(=O)NCC(=O)O | 104 to 106 |
| CCOC(=O)c1nnn(-c2cccc([N+](=O)[O-])c2)c1N | 151 to 153 |
| CC(Cl)C(=O)NCC(=O)Nc1ccc(F)c(F)c1F (stereo unspecified) | 128 to 130 |
| O=Cc1ccc(-c2cccs2)cc1F | 73 to 75 |
| Nc1ccc([N+](=O)[O-])c(Br)c1 | 169 to 171 |
| O=C(O)c1ccc(Oc2ccc(F)cc2[N+](=O)[O-])cc1 | 179 to 181 |
| Cc1cc(N)n(C2CCN(C)CC2)n1 | 89 to 91 |
| N#Cc1ccncc1C(=O)O | 175 to 177 |
| O=C(CCl)c1nnc(-c2ccccc2)o1 | 123 to 125 |
| C=CCn1c(S)nc2sccc2c1=O | 212 to 214 |
| ClCc1cc(Cl)cc2c1OC(c1ccccc1)OC2 (stereo unspecified) | 111 to 113 |
| Cc1noc2nc(-c3ccccc3Cl)cc(C(=O)O)c12 | 248 to 250 |
| CCOc1cc(Br)c([N+](=O)[O-])cc1OCC | 62 to 64 |

| Structure (SMILES) | melting point [°C] |
| --- | --- |
| CC(C)Cn1ncc2cc(C(=O)O)cnc21 | 175 to 177 |
| Cc1ccc2ncnc(O)c2c1 | 238 to 240 |
| Cc1c(C)c(C)c(C(=O)CCl)c(C)c1C | 70 to 72 |
| CC1CCN(CC(C)C(=O)NN)CC1 (stereo unspecified) | 113 to 115 |
| c1cncc(NCc2ccsc2)c1 | 62 to 64 |
| Cc1ccc(Cl)nc1CC(=O)O | 120 to 122 |
| O=Cc1ccc(-c2cc(Cl)ccc2Cl)o1 | 84 to 86 |
| NNC(=O)C1CC1 | 92 to 94 |
| CCOC=C1C(=O)N(c2ccc(Cl)cn2)C(=O)c2ccccc21 | 200 to 202 |
| Cc1cc(C)n(CCO)n1 | 74 to 76 |
| COC(=O)c1cc(C)nc(SC)n1 | 116 to 118 |
| CC1(c2ccc(Br)s2)NC(=O)NC1=O (stereo unspecified) | 184 to 186 |
| CC(=O)c1cccc(OCC(=O)N(C)C)c1 | 93 to 95 |
| COC(=O)C(N)c1ccc(OC)cc1 (stereo unspecified) | 59 to 61 |
| Cn1cc(S(=O)(=O)NCC(=O)O)cn1 | 201 to 203 |
| COc1ccc(CC(N)=NO)cc1 | 109 to 111 |
| COc1cc(C)ccc1Oc1ccc(N)cn1 | 106 to 108 |
| C=CCNC(=O)c1cccc(S(=O)(=O)Cl)c1 | 62 to 64 |
| N#Cc1ccccc1-c1ccc(CN)cc1 | 53 to 55 |
| O=C(O)CCCOc1ccccc1F | 76 to 78 |
| CN(C)c1ccc(C(=O)O)c(F)c1 | 199 to 201 |
| O=Cc1ccnc(-c2ccccc2)n1 | 116 to 118 |
| Cc1cc(C(=O)O)sc1-c1cccc(Cl)c1 | 178 to 180 |
| CCS(=O)(=O)c1cccc(F)c1N | 91 to 93 |
| Cn1nc(Br)c(=O)n(C)c1=O | 95 to 97 |

| Structure (SMILES) | melting point [°C] |
| --- | --- |
| Nc1sccc1C(=O)NC1CC1 | 144 to 146 |
| O=C(O)c1cnn(Cc2ccccc2)c1 | 149 to 151 |
| CCNS(=O)(=O)c1ccc(F)c(C(=O)O)c1 | 154 to 156 |
| FC(F)(F)c1nc(Cl)c2cc(Br)ccc2n1 | 101 to 103 |
| COc1ccc(C2(C(=O)O)CCOCC2)cc1 | 167 to 169 |
| Nc1ncc(Cc2cccc(C(=O)O)c2)s1 | 217 to 219 |
| CCOc1ccc2ncc(C#N)c(Cl)c2c1 | 125 to 127 |
| NNC(=O)c1ccc(-n2cnnn2)cc1 | 228 to 230 |
| Cc1n[nH]c(C(N)=O)n1 | 222 to 224 |
| O=S(=O)(F)c1ccc2[nH]ncc2c1 | 175 to 177 |
| Nc1ccc(Br)nc1Cl | 113 to 115 |
| NCc1ccnc(N)c1 | 92 to 94 |
| CCNC(=O)c1cccc(O)c1 | 160 to 162 |
| CON(C)S(=O)(=O)c1ccc(N)cc1 | 148 to 150 |
| CN1CCC(n2ncc3cc(Br)cnc32)CC1 | 120 to 122 |
| CCOC(=O)c1csc(-c2ccccn2)n1 | 67 to 69 |
| Cc1nnc(N2CCCC2)c(C#N)c1C | 146 to 148 |
| Nc1ccc(Oc2ccccc2)cc1C(=O)O | 138 to 140 |
| O=C(O)CCS(=O)(=O)c1ccccc1Cl | 132 to 134 |
| Cc1cc2c(N3CCCC3C(=O)O)ncnc2s1 (stereo unspecified) | 129 to 131 |
| Cn1c(C(=O)O)ccc1-c1ccccc1 | 143 to 145 |
| Cc1cc2cn[nH]c2cc1N | 219 to 221 |
| O=C(O)C(=O)c1ccc(F)c(F)c1 | 88 to 90 |
| COC(=O)c1oc(CCl)cc1C | 53 to 55 |
| NNc1ccc(S(=O)(=O)Nc2ccccc2)cc1[N+](=O)[O-] | 207 to 209 |

| Structure (SMILES) | melting point [°C] |
| --- | --- |
| NC(=O)CC(NS(=O)(=O)c1ccccc1F)C(=O)O (stereo unspecified) | 165 to 167 |
| O=C(O)COc1ccc([N+](=O)[O-])c(F)c1 | 149 to 151 |
| Cc1oncc1C(=O)NC(C)C(=O)O (stereo unspecified) | 159 to 161 |
| Nc1ccc(NC(=O)CN2CCCCCC2)cc1 | 82 to 84 |
| Nc1ccc2c(Br)ccc(Cl)c2n1 | 249 to 251 |
| CS(=O)(=O)Nc1ccc(S(N)(=O)=O)cc1F | 190 to 192 |
| O=C(O)C1CC1c1ccc2c(c1)OCCO2 (stereo unspecified) | 160 to 162 |
| Oc1cccc2ccc(N3CCCC3)nc12 | 85 to 87 |
| O=C(O)c1csc(S(=O)(=O)Cl)c1 | 130 to 132 |
| CC(=O)NNC(=O)C(C)Cl (stereo unspecified) | 156 to 158 |
| O=C(O)C=Cc1ccc(OCc2ccccc2)cc1 | 141 to 143 |
| O=C(O)Cc1csc(-c2cccs2)n1 | 97 to 99 |
| COc1cccc(Nc2nnc(S)s2)c1 | 208 to 210 |
| O=C(O)c1cc(S(=O)(=O)Cl)cs1 | 139 to 141 |
| COC(=O)c1cc(Oc2ccc(Cl)cc2)ccc1N | 74 to 76 |
| CCOC(=O)c1c(CC(C)C)csc1N | 58 to 60 |
| O=C(O)c1cccc(OCc2cccnc2)c1 | 195 to 197 |
| Oc1c(Cl)c(F)nc(F)c1Cl | 102 to 104 |
| CC(C)C(Br)C(=O)NC1CCCCCC1 (stereo unspecified) | 119 to 121 |
| CC(=O)C(CN1C(=O)c2ccccc2C1=O)C(C)=O | 169 to 171 |
| NC(CCCN1CCCCC1)=NO | 89 to 91 |
